The target in the experiment is T1, Full-length glucokinase (beta cell isoform) (Homo sapiens, UniProt P35557).
T1 construct: Full-length glucokinase (beta cell isoform) was His-tagged at N-terminus; His tag (N); made in house
T1 sequence (P35557 1-465): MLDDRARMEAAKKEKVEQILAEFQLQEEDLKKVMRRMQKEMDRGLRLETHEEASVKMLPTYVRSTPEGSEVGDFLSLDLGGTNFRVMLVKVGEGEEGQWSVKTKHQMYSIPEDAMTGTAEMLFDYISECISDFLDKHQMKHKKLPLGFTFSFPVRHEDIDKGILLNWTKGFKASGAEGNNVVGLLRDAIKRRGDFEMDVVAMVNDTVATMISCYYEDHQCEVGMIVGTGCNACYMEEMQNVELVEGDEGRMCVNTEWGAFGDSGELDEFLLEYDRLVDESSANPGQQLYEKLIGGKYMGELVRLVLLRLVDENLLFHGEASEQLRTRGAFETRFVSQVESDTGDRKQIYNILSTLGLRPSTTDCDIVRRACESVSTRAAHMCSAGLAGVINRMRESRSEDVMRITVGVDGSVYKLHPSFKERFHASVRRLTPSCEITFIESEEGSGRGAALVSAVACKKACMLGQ
Briefly: Glucokinase biochemical assay (PK/LDH-coupled, NADH depletion at 340 nm): % activation, EC50, % max activation. The settings on record: 5 mM glucose; for activation at 10 µM: 10 uM compound, % Activation=(Va/Vo−1)×100, read-out: % Activation at 10 uM; for EC50: GK activation, read-out: EC50; for Emax: fitted maximum activation, read-out: % Max Activation. The essentials:
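N-terminally His-tagged full-length human beta-cell glucokinase, room temperature, 5 mM glucose, 1 mM ATP, PK/LDH-coupled with 0.7 mM NADH, 1% DMSO final. Initial velocity from the 200–900 s slope of A340 decline. % activation = (Va/Vo−1)×100, measured across compound concentrations.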

This passage reports activation, EC50 and Emax results from US8119624B2, “Fused phenyl amido heterocyclic compounds” (Pfizer Inc., priority 2006, dated 2012).

Molecules are shown by their SMILES. Bounds are passed on as bounds.

As for `Cc1cc2c(Oc3ccc(S(=O)(=O)N4CCC4)cc3)cc(C(=O)Nc3ccc(Cl)cn3)cc2o1` [Example 300, 4-(4-(Azetidin-1-ylsulfonyl)phenoxy)-N-(5-chloropyridin-2-yl)-2-methyl-benzofuran-6-carboxamide], the activation at 10 µM is 53.4%, the EC50 came out at 710 nM and the Emax is 56%.
The like results for `Cc1cc2c(Oc3ccc(S(=O)(=O)N4CCC4)cc3)cc(C(=O)Nc3ccc(CO)cn3)cc2o1` [Example 301, 4-(4-(Azetidin-1-ylsulfonyl)phenoxy)-N-(5-(hydroxymethyl)-pyridin-2-yl)-2-methylbenzofuran-6-carboxamide] were, in that order, 168%, 150 nM and 137%.
Turning to `CCOc1ccc(NC(=O)c2cc(Oc3ccc(S(=O)(=O)N4CCC4)cc3)c3cc(C)oc3c2)nc1` [Example 302, 4-(4-(Azetidin-1-ylsulfonyl)phenoxy)-N-(5-ethoxypyridin-2-yl)-2-methyl-benzofuran-6-carboxamide], the activation at 10 µM amounted to 123%, the EC50 is 1300 nM and the Emax was found to be 110%.
For `COc1cnc(NC(=O)c2cc(Oc3ccc(S(=O)(=O)N4CCC4)cc3)c3cc(C)oc3c2)cn1` [Example 303, 4-(4-(Azetidin-1-ylsulfonyl)phenoxy)-N-(5-methoxypyrazin-2-yl)-2-methyl-benzofuran-6-carboxamide] the same measures were 195%, 650 nM and 179%.
For `Cc1ccc(NC(=O)c2cc(Oc3ccc(S(=O)(=O)N(C)C)c(F)c3)c3cc(C)oc3c2)nc1` [Example 304, 4-{4-[(Dimethylamino)sulfonyl]-3-fluorophenoxy}-2-methyl-N-(5-methyl-pyridin-2-yl)-1-benzofuran-6-carboxamide] the same measures were 94.6%, 240 nM and 89%.
Regarding `Cc1cc2c(Oc3ccc(S(=O)(=O)N(C)C)c(F)c3)cc(C(=O)Nc3ccn(C)n3)cc2o1` [Example 305, 4-{4-[(Dimethylamino)sulfonyl]-3-fluorophenoxy}-2-methyl-N-(1-methyl-1H-pyrazol-3-yl)-1-benzofuran-6-carboxamide], the activation at 10 µM came out at 166%, the EC50 was found to be 140 nM and the Emax is 168%.
For `Cc1cc2c(Oc3ccc(S(=O)(=O)N(C)C)c(F)c3)cc(C(=O)Nc3cnn(C)n3)cc2o1` [Example 306, 4-{4-[(Dimethylamino)sulfonyl]-3-fluorophenoxy}-2-methyl-N-(2-methyl-2H-1,2,3-triazol-4-yl)-1-benzofuran-6-carboxamide] the same measures were 185%, 330 nM and 186%.
The like results for `COc1cnc(NC(=O)c2cc(Oc3ccc(S(=O)(=O)N(C)C)c(F)c3)c3cc(C)oc3c2)cn1` [Example 307, 4-{4-[(Dimethylamino)sulfonyl]-3-fluorophenoxy}-N-(5-methoxypyrazin-2-yl)-2-methyl-1-benzofuran-6-carboxamide] were, in that order, 153%, 400 nM and 156%.
The like results for `Cc1cc2c(Oc3ccc(S(=O)(=O)N(C)C)c(F)c3)cc(C(=O)Nc3cnc(N(C)C)cn3)cc2o1` [Example 308, N-[5-(Dimethylamino)pyrazin-2-yl]-4-{4-[(dimethylamino)-sulfonyl]-3-fluorophenoxy}-2-methyl-1-benzofuran-6-carboxamide] were, in that order, 141%, 110 nM and 131%.
Consider `COCc1cc2c(Oc3ccc(S(C)(=O)=O)cc3)cc(C(=O)Nc3ccc(C)cn3)cc2o1` [Example 309, 2-(Methoxymethyl)-N-(5-methylpyridin-2-yl)-4-[4-(methylsulfonyl)-phenoxy]-1-benzofuran-6-carboxamide], for which the activation at 10 µM was 72.3%, the EC50 amounted to 230 nM and the Emax was determined as 81%.
For `COCc1cc2c(Oc3ccc(S(C)(=O)=O)cc3)cc(C(=O)Nc3ccn(C)n3)cc2o1` [Example 310, 2-(Methoxymethyl)-N-(1-methyl-1H-pyrazol-3-yl)-4-[4-(methylsulfonyl)-phenoxy]-1-benzofuran-6-carboxamide] the same measures were 118%, 730 nM and 137%.
For `COCc1cc2c(Oc3ccc(S(C)(=O)=O)cc3)cc(C(=O)Nc3cnc(N(C)C)cn3)cc2o1` [Example 311, N-[5-(Dimethylamino)pyrazin-2-yl]-2-(methoxymethyl)-4-[4-(methylsulfonyl)-phenoxy]-1-benzofuran-6-carboxamide] the same measures were 106%, 380 nM and 114%.
For `COCc1cc2c(Oc3ccc(S(C)(=O)=O)cc3)cc(C(=O)Nc3cnc(OC)cn3)cc2o1` [Example 312, 2-(Methoxymethyl)-N-(5-methoxypyrazin-2-yl)-4-[4-(methylsulfonyl)phenoxy]-1-benzofuran-6-carboxamide] the same measures were 112%, 490 nM and 121%.
For the molecule `COCc1cc2c(Oc3ccc(S(C)(=O)=O)cc3)cc(C(=O)Nc3cnn(C)n3)cc2o1` [Example 313, 2-(Methoxymethyl)-4-[4-(methylsulfonyl)phenoxy]-N-(2-methyl-2H-1,2,3-triazol-4-yl)-1-benzofuran-6-carboxamide], the activation at 10 µM worked out at 131%, the EC50 worked out at 920 nM and the Emax amounted to 155%.
The like results for `COCc1cc2c(Oc3ccc(S(C)(=O)=O)cc3)cc(C(=O)Nc3cc(OC)ccn3)cc2o1` [Example 314, 2-(Methoxymethyl)-N-(4-methoxypyridin-2-yl)-4-[4-(methylsulfonyl)phenoxy]-1-benzofuran-6-carboxamide] were, in that order, 47.3%, 330 nM and 46%.
In the case of `COCc1cc2c(Oc3ccc(S(C)(=O)=O)cc3)cc(C(=O)Nc3cc(C)on3)cc2o1` [Example 315, 2-(Methoxymethyl)-N-(5-methylisoxazol-3-yl)-4-[4-(methylsulfonyl)phenoxy]-1-benzofuran-6-carboxamide], the activation at 10 µM came to 11.9%.
In the case of `Cc1ccc(NC(=O)c2cc(Oc3ccc(S(C)(=O)=O)cc3)c3cc(CO)oc3c2)nc1` [Example 316, 2-(Hydroxymethyl)-N-(5-methylpyridin-2-yl)-4-(4-(methylsulfonyl)-phenoxy)benzofuran-6-carboxamide], the activation at 10 µM is 73.7%, the EC50 stood at 410 nM and the Emax came out at 78%.
For `Cn1ccc(NC(=O)c2cc(Oc3ccc(S(C)(=O)=O)cc3)c3cc(CO)oc3c2)n1` [Example 317, 2-(Hydroxymethyl)-N-(1-methyl-1H-pyrazol-3-yl)-4-[4-(methylsulfonyl)-phenoxy]-1-benzofuran-6-carboxamide] the same measures were 186%, 1700 nM and 228%.
Consider `Cn1ccc(NC(=O)c2cc(Oc3ccc(S(C)(=O)=O)cc3)c3cc(CN4CCCC4=O)oc3c2)n1` [Example 318, N-(1-Methyl-1H-pyrazol-3-yl)-4-[4-(methylsulfonyl)phenoxy]-2-[(2-oxopyrrolidin-1-yl)methyl]-1-benzofuran-6-carboxamide], for which the activation at 10 µM is 91.3% and the EC50 was above 10000 nM.
As to `Cc1ccc(NC(=O)c2cc(Oc3ccc(S(C)(=O)=O)cc3)c3cc(CN(C)C)oc3c2)nc1` [Example 319, 2-[(Dimethylamino)methyl]-N-(5-methylpyridin-2-yl)-4-[4-(methylsulfonyl)-phenoxy]-1-benzofuran-6-carboxamide], the activation at 10 µM amounted to 59.7%, the EC50 stood at 5000 nM and the Emax is 90%.
For `Cc1ccc(NC(=O)c2cc(Oc3ccc(S(C)(=O)=O)cc3)c3cc(Cn4ccnc4C)oc3c2)nc1` [Example 320, 2-[(2-Methyl-1H-imidazol-1-yl)methyl]-N-(5-methylpyridin-2-yl)-4-[4-(methylsulfonyl)phenoxy]-1-benzofuran-6-carboxamide] the same measures were 39.2%, 2500 nM and 41%.
The like results for `Cc1ccc(NC(=O)c2cc(Oc3ccc(S(C)(=O)=O)cc3)c3cc(C(F)F)oc3c2)nc1` [Example 321, 2-(Difluoromethyl)-N-(5-methylpyridin-2-yl)-4-[4-(methylsulfonyl)-phenoxy]-1-benzofuran-6-carboxamide] were, in that order, 100%, 4300 nM and 132%.
For `Cn1ccc(NC(=O)c2cc(Oc3ccc(S(C)(=O)=O)cc3)c3cc(C(F)F)oc3c2)n1` [Example 322, 2-(Difluoromethyl)-N-(1-methyl-1H-pyrazol-3-yl)-4-[4-(methylsulfonyl)-phenoxy]-1-benzofuran-6-carboxamide] the same measures were 161%, 6300 nM and 235%.
